These results are taken from US12421257B2, “Compositions and methods for inhibiting group II intron RNA” (YALE UNIVERSITY, priority 2018, dated 2025).

One data set deals with HEK-293T cells. Description: Cytotoxicity in HEK-293T cells (Cell Titer Glo). In kind it is cell-based, human. To be noted: for IC50: Homo sapiens. (In general: ATP-based viability assays read luminescence as a measure of living cells.)
Data set [1] relates to COX1 aI5γ group II intron. Nature of the data set: Group II intron splicing in S. cerevisiae by RT-qPCR. In kind it is cell-based, Saccharomyces cerevisiae. The settings on record: qRT-PCR, four hours with compound. The protocol: A culture of S. cerevisiae was grown overnight with shaking in YPGE at 30° C. The saturated culture was then diluted and grown to mid-log phase in YPGE. Equal volumes of DMSO or compounds dissolved in DMSO were added to individual cultures (final concentrations of NED-2020: 64 μg/mL, APY-101: 32 μg/mL, APY-081: 32 μg/mL, APY-014: 64 μg/mL, Amphotericin B: 8 μg/mL), and incubated for four hours. Cells were harvested by centrifugation, washed with 500 μL ice-cold MilliQ water, centrifuged again, and snap-frozen in liquid nitrogen. Total RNA was isolated using E.Z.N.A. Yeast Purification Kit (Omega Bio-tek) according to manufacturer's procedures. The RNA was eluted in 50 μL of RNase/DNase-free water (ThermoFisher), followed by DNAse treatment with RQ1 DNase (Promega), for 1 hour at 37° C. Then it was mixed with 6 μl of 3M NaOAc and precipitated with 75% EtOH at −20° C. overnight. Then the RNA was reverse-transcribed with SuperScript III (ThermoFisher) following manufacturer's recommendations with 200 ng Random Hexamer Primers (ThermoFisher) and RNasin (ThermoFisher) in a 20 μl reaction. After reverse transcription, RNA was degraded by addition of 2N NaOH (2 μl) and incubation at 95° C. for 5 minutes. After cooling on ice for 5 minutes, 2 μl of 1M HCl and 2 μl of 3M NaOAc were added to the reaction mixture, and cDNA was precipitated with 75% EtOH at −20° C. for 30 minutes and resuspended in RNase/DNase-free water. The cDNA levels were quantified with real-time PCR using LightCycler 480 SYBR Green I (Roche) and a CFX384 Real-Time PCR Detection System (Bio-Rad) in triplicate. Relative levels of indicated RNA species from different conditions were normalized according to the ΔΔCT method via the following equation (Livak and Schmittgen, 2001, Methods, 25:402-408): ΔΔCT=[(CTCOX1total or unspliced−CTACT1or PGK1)test compound−(CTCOX1total or unspliced−CTACT1or PGK1)DMSO)].
The average and SEM of 2^-ΔΔCT is reported for each sample from three independent replicates. The following primer sets were used to amplify indicated targets: ACT1: […] (SEQ ID NO:1), […] (SEQ ID NO:2); PGK1: […] […]
(In general: Quantitative PCR measures a nucleic acid by following its amplification.)

Another data set deals with C. parapsilosis. Description: MIC determination against C. parapsilosis. In kind it is cell-based, Candida parapsilosis. To be noted: Lodderomyces parapsilosis; RPMI-1640, 35° C. or 37° C., turbidity after 24 and 48 hours. The gist of the method:
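Broth microdilution in RPMI-1640 with C. parapsilosis at 0.5×10^3 to 2.5×10^3 CFU/mL; test compounds 0.25-128 μg/ml final, 1% DMSO. Plates incubated at 35° C or 37° C, turbidity read visually at 24 and 48 h. MIC = lowest concentration without visible growth; triplicates.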

Data set [2] has as its system S. cerevisiae wild-type (NP40-36a) and mtDNA intronless (XPM46) strains. Nature of the data set: S. cerevisiae growth assay, wild-type vs mtDNA intronless strain. Format: cell-based, Saccharomyces cerevisiae. The settings on record: YPGE medium, 64 or 128 μg/mL. How it is done: Cultures of S. cerevisiae (Wild-type: NP40-36a, mtDNA intronless: XPM46 (Perez-Martinez et al., 2003, EMBO J, 22:5951-5961) were grown overnight with shaking to mid-log phase in YPGE at 30° C. Equal numbers of cells were harvested and serially-diluted 1:5. Cells were then plated on YPD or YPGE media containing DMSO or Intronistat A dissolved in DMSO (final concentration: 64 or 128 μg/mL). Plates were grown for one day (YPD plates), two days (YPGE DMSO plate), or 18 days (YPGE 18 (Intronistat A) plate) at 30° C. Experiment was replicated twice to ensure reproducibility of growth phenotype.

Where [3] appears, read: cytotoxicity, 24 hours with compound, read-out: IC50 HEK-293.
The mark [4] stands for this setting: 72 hours growth in the presence of compounds, read-out: IC50 HEK-293T viability after 72-hour incubation.

Values after ≈ are worked out from the molar mass of the structure shown. Like-named read-outs stand apart in the source and are kept apart here. Bounds are passed on as bounds.

With `O=C1/C(=C/c2cc(O)cc(O)c2)Oc2cc(O)cc(O)c21` [APY-014, (Z)-2-(3,5-Dihydroxybenzylidene)-4,6-dihydroxybenzofuran-3(2H)-one], the IC50 – broadly, the point on the concentration scale where inhibition reaches its midpoint – in the data set on HEK-293T cells (setting [3]) is over 64 µg/mL. For the same compound, the “Splicing of COX1 aI5γ group II intron in S. cerevisiae in vivo (in words)” value (“Splicing of COX1 aI5γ group II intron” for short) in data set [1] is “inactive”.

`Cc1ccncc1-c1ccc2oc(C(=O)c3cc(O)c(O)c(O)c3)cc2c1` [APY-081, 5-{[5-(4-Methylpyridin-3-yl)-1-benzofuran-2-yl]carbonyl}benzene-1,2,3-triol]: the MIC (commonly the least concentration at which growth counts as inhibited) against C. parapsilosis lay in the range of 4 to 8 µg/mL (≈ 11.1 to 22.1 µM). The concentration for half-maximal inhibition (IC50) with HEK-293T cells (setting [4]) is 0.79 ± 0.09 µg/mL; in the data set on HEK-293T cells (setting [3]), over 128 µg/mL. Moreover, the “Splicing of COX1 aI5γ group II intron” value in data set [1] is on record as “inhibit splicing”.

With `O=C(c1cc(O)c(O)c(O)c1)c1cc2cc(-c3ccc(CO)cc3)ccc2o1` [APY-084, 5-({5-[4-(Hydroxymethyl)phenyl]-1-benzofuran-2-yl}carbonyl)benzene-1,2,3-triol], the minimal inhibitory concentration (MIC) against C. parapsilosis was 2 to 4 µg/mL (≈ 5.31 to 10.6 µM). In addition, the IC50 in the data set on HEK-293T cells (setting [4]) was found to be 1 ± 0.04 µg/mL; in the data set with HEK-293T cells (setting [3]), 1.1 ± 0.1 µg/mL.

For the compound `Br.CCN(CC)Cc1ccc(-c2ccc3oc(C(=O)c4cc(O)c(O)c(O)c4)cc3c2)cc1` [APY-090, 5-[(5-{4-[(Diethylamino)methyl]phenyl}-1-benzofuran-2-yl)carbonyl]benzene-1,2,3-triol hydrobromide], the MIC against C. parapsilosis is 4 to 8 µg/mL. In the data set on HEK-293T cells (setting [3]), the concentration for half-maximal inhibition (IC50) came to 1.7 ± 0.6 µg/mL.

Take `CCCCNS(=O)(=O)c1ccc(-c2ccc(-c3nc(-c4cc(O)c(O)c(O)c4)cs3)cc2)cc1` [APY-093, N-Butyl-4-{4-[4-(3,4,5-trihydroxyphenyl)-1,3-thiazol-2-yl]phenyl}benzene-1-sulfonamide]: the MIC in the data set on C. parapsilosis lay within 32 to 64 µg/mL (≈ 64.4 to 129 µM). Moreover, the half-maximal inhibitory concentration (IC50) with HEK-293T cells (setting [3]) came to 7.2 ± 1.5 µg/mL.

As to `CC(=O)c1ccc(-c2ccc3oc(C(=O)c4cc(O)c(O)c(O)c4)cc3c2)cc1` [APY-101, 1-(4-{2-[(3,4,5-Trihydroxyphenyl)carbonyl]-1-benzofuran-5-yl}phenyl)ethan-1-one], the MIC against C. parapsilosis fell in the range of 2 to 4 µg/mL (≈ 5.15 to 10.3 µM). For the same compound, in the data set with HEK-293T cells (24 hours incubation), the “Toxicity in human cells (in words)” value is listed as “did not show toxicity”. Moreover, the figures for the IC50 in the data set with HEK-293T cells (setting [4]) and in the data set on HEK-293T cells (setting [3]) were 1.3 ± 0.1 µg/mL and over 128 µg/mL, respectively. Moreover, the “Growth of intronless vs wild-type strain in presence of compound (in words)” value in data set [2] is “intronless strain is much more resistant”. For the same compound, the “Splicing of COX1 aI5γ group II intron” value in data set [1] is given as “inhibit splicing”.
